Data taken from patent US10570117B2, “Phenylimidazole compound” (Otsuka Pharmaceutical Factory, Inc., priority 2015, dated 2020).
Values after ≈ are worked out from the molar mass of the structure shown. Read-outs that look alike come from different tables or passages of the source.

Legend:
[1] = Solubility in gastric juice or intestinal juice model fluid (precipitation method using DMSO); assay type: physicochemical; conditions: room temperature
Outline: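 Dissolved amount (μg/mL) quantified by UV of filtrate versus pre-made calibration curves. Precipitation approach: DMSO solutions spiked into pH 1.2 (JP 1st fluid) or pH 6.8 (JP 2nd fluid) medium, shaken at room temperature for 24 h before insolubles were filtered off.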

[2] = test system: lipoprotein lipase (LPL) gene; test: LPL mRNA elevating action (RT-PCR quantification of LPL mRNA in C2Cl2 cells); assay type: cell-based, mouse; conditions: Mus musculus, 24 h, compound 10 μM, ratio relative to the amount of LPL mRNA in cells with DMSO only, read-out: Rate of increase in LPL mRNA
Outline: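 Read-out is LPL mRNA relative to vehicle (DMSO = 1), measured by reverse transcription and 20-cycle real-time PCR. Cells were the mouse striated-muscle line C2Cl2, treated 24 h with 10 μM compound in DMEM containing 10% FBS.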

[3] = pH 1.2, simulated gastric fluid, kinetic from dmso stock, 1st fluid for Disintegration Test of Japanese Pharmacopoeia (pH: 1.2), read-out: Solubility (μg/mL) 1st fluid
[4] = pH 6.8, kinetic from dmso stock, 2nd fluid for Disintegration Test of Japanese Pharmacopoeia (pH: 6.8), read-out: Solubility (μg/mL) 2nd fluid

| SMILES | solubility at 24 h [1, 3] [µg/mL] | solubility at 24 h [1, 4] [µg/mL] | melting point | fold induction at 10 µM [2] |
| --- | --- | --- | --- | --- |
| COc1cc(OCc2ncc(C(F)(F)F)cc2F)ccc1-c1cnc(C(C)C)[nH]1 [Example 381] | 78.2 (≈ 191 µM) | 66.9 (≈ 163 µM) | 84 to 89 °C | 2.19 |
| COc1cc(-c2[nH]c(-c3ccc(F)nc3)nc2Cl)ccc1OCc1ncc(C(F)(F)F)cc1F [Example 325] | 4.7 (≈ 9.46 µM) | 1.3 (≈ 2.62 µM) | 165 to 170 °C | 2.44 |
| COc1cc(-c2cnc(C(C)(C)C)[nH]2)ccc1OCc1ncc(C(F)(F)F)cc1F [Example 380] | 81.2 (≈ 192 µM) | 63.7 (≈ 150 µM) | 178 to 182 °C | 1.18 |
| COc1cc(-c2[nH]c(C3CCC(F)(F)CC3)nc2Cl)ccc1OCc1ccc(C(F)(F)F)cn1 [Example 209] | 99.4 (≈ 198 µM) | < 0.4 | 175 to 177 °C | 5.34 |
| COc1cc(OCc2ccc(C(F)(F)F)cn2)ccc1-c1[nH]c(C2CCCC(F)(F)C2)nc1Br (stereo not drawn) [Example 183] | 99 (≈ 181 µM) | 1.1 (≈ 2.01 µM) | 170 to 171 °C | 4.26 |
| COc1cc(OCc2ccc(C(F)(F)F)cn2)ccc1-c1c[nH]c(-c2cccnc2)n1 [Example 89] | 85.4 (≈ 200 µM) | 1.8 (≈ 4.22 µM) | 240 to 242 °C | 1.69 |
| Cc1cc(O)ccc1-c1cnc(-c2ccc(F)nc2)[nH]1 [Example 350] | 53.3 (≈ 198 µM) | 51 (≈ 189 µM) | 218 to 220 °C | 1.38 |
| COc1cc(-c2[nH]c(C3CC3)nc2Cl)ccc1OCc1ncc(C(F)(F)F)cc1F [Example 378] | 81.6 (≈ 185 µM) | 7.5 (≈ 17 µM) | 161 to 165 °C (dec.) | 1.24 |
| Cc1cc(OCc2ncc(C(F)(F)F)cc2F)ccc1-c1cnc(-c2ccc(F)nc2)[nH]1 [Example 351] | 85.9 (≈ 192 µM) | 7 (≈ 15.7 µM) | 216 to 222 °C | 4.12 |
| COc1cc(OCc2c(F)cc(C(F)(F)F)c[n+]2[O-])ccc1-c1[nH]c(-c2ccc(F)nc2)nc1Br [Example 318] | 100 (≈ 180 µM) | 8.7 (≈ 15.6 µM) | 105 to 120 °C | 3.15 |
| COc1cc(OCc2ncc(C(F)(F)F)cc2F)ccc1-c1cnc(C2CCCC2)[nH]1 [Example 365] | 77.9 (≈ 179 µM) | 31.2 (≈ 71.7 µM) | 97 to 102 °C | 3.02 |
| COc1cc(OCc2ncc(Br)cc2F)ccc1-c1[nH]c(-c2ccc(F)nc2)nc1Cl [Example 175] | 10 (≈ 19.7 µM) | 2.5 (≈ 4.92 µM) | 122 to 124 °C | 3.94 |
| COc1cc(OCc2ncc(C(F)(F)F)cc2F)ccc1-c1[nH]c(C2CCC(F)(F)CC2)nc1Br [Example 337] | 110 (≈ 195 µM) | 0.5 (≈ 0.886 µM) | 190 to 191 °C | 3.07 |
| COc1cc(-c2[nH]c(C(C)C)nc2Cl)ccc1OCc1ncc(C(F)(F)F)cc1F [Example 386] | 82.7 (≈ 186 µM) | 0.9 (≈ 2.03 µM) | 188 to 191 °C (dec.) | 2.77 |
| Fc1ccc(-c2ncc(-c3ccc(OCc4ncc(C(F)(F)F)cc4F)cc3F)[nH]2)cn1 [Example 369] | 35.9 (≈ 79.7 µM) | < 0.3 | 167 to 172 °C | 1.26 |
| COc1cc(OCc2ncc(Cl)cc2F)ccc1-c1cnc(-c2ccc(F)nc2)[nH]1 [Example 141] | 10.1 (≈ 23.6 µM) | < 0.3 | 174 to 176 °C | 2.33 |
| COc1cc(OCc2ncc(C(F)(F)F)cc2F)ccc1-c1[nH]c(C2CCCC2)nc1Cl [Example 367] | 82.1 (≈ 175 µM) | < 0.3 | 139 to 142 °C | 2.54 |
| COc1cc(OCc2ccccc2)ccc1-c1[nH]c(-c2ccc(F)nc2)nc1C [Example 332] | 77.7 (≈ 200 µM) | 3.3 (≈ 8.47 µM) | 169 to 171 °C | 1.91 |
| Oc1ccc(-c2cnc(-c3ccc(F)nc3)[nH]2)c(Cl)c1 [Example 359] | 57.3 (≈ 198 µM) | 52.8 (≈ 182 µM) | 223 to 225 °C | 1.75 |
| COc1cc(OCc2ncc(C(F)(F)F)cc2F)ccc1-c1cnc(CCC(F)(F)F)[nH]1 [Example 390] | 49.5 (≈ 107 µM) | 21.6 (≈ 46.6 µM) | 76 to 91 °C | 2.09 |

Continued, in another order:

| solubility at 24 h [1, 3] [µg/mL] | solubility at 24 h [1, 4] [µg/mL] | melting point | SMILES | fold induction at 10 µM [2] |
| --- | --- | --- | --- | --- |
| 11.2 (≈ 24.3 µM) | 9.6 (≈ 20.8 µM) | 174 to 223 °C | COc1cc(OCc2ccnc(C(F)(F)F)c2)ccc1-c1cnc(-c2ccc(Cl)nc2)[nH]1 [Example 107] | 2.68 |
| 104 (≈ 196 µM) | 2 (≈ 3.78 µM) | 110 to 112 °C | COc1cc(OCc2ccc(C(F)(F)F)nc2)ccc1-c1nc(-c2ccc(Cl)nc2)n(CC2CC2)c1C [Example 154] | 5.78 |
| 15.1 (≈ 27.3 µM) | < 0.4 | 125 to 127 °C | COc1cc(OCc2ccc(C(F)(F)F)cn2)ccc1-c1c(Br)nc(-c2ccc(Cl)nc2)n1C [Example 301] | 2.99 |
| 17.5 (≈ 32.3 µM) | < 0.4 | 156 to 158 °C | COc1cc(OCc2ncc(C(F)(F)F)cc2F)ccc1-c1[nH]c(-c2ccc(F)nc2)nc1Br [Example 255] | 3.14 |
| 4.7 (≈ 9.78 µM) | 0.5 (≈ 1.04 µM) | 156 to 158 °C | COc1cc(OCc2ncc(C(F)(F)F)cc2F)ccc1-c1[nH]c(-c2ccc(F)nc2)nc1F [Example 319] | 3.74 |
| 76.7 (≈ 193 µM) | 2.2 (≈ 5.54 µM) | 168 to 171 °C | COc1cc(OCc2coc(C)n2)ccc1-c1c[nH]c(-c2ccc(Cl)nc2)n1 [Example 19] | 1.7 |
| 31.2 (≈ 67.7 µM) | 6.3 (≈ 13.7 µM) | 191 to 203 °C | COc1cc(OCc2cncc(C(F)(F)F)c2)ccc1-c1cnc(-c2ccc(Cl)nc2)[nH]1 [Example 106] | 2.66 |
| 5.9 (≈ 12.3 µM) | < 0.3 | 185 to 187 °C | COc1cc(OCc2ncc(C(F)(F)F)cc2Cl)ccc1-c1cnc(-c2ccc(F)nc2)[nH]1 [Example 132] | 2.77 |
| > 99 | 5.2 (≈ 11.3 µM) | 141 to 150 °C | COc1cc(OCc2ccc(C(F)(F)F)cn2)ccc1-c1nc(-c2ccc(F)nc2)[nH]c1C [Example 39] | 2.7 |
| 11.4 (≈ 21.8 µM) | < 0.4 | 132 to 162 °C | COc1cc(OCc2cnccc2C(F)(F)F)ccc1-c1[nH]c(-c2ccc(F)nc2)nc1Br [Example 256] | 3.12 |
| 69.1 (≈ 135 µM) | 9.3 (≈ 18.1 µM) | 105 to 110 °C | COc1cc(OCc2c(F)cc(C(F)(F)F)c[n+]2[O-])ccc1-c1[nH]c(-c2ccc(F)nc2)nc1Cl [Example 317] | 2.9 |
| > 98 | < 0.3 | 185 to 188 °C | COc1cc(OCc2ccc(C(F)(F)F)nc2)ccc1-c1nc(-c2ccc(Cl)nc2)n(C)c1C [Example 152, 2-chloro-5-[4-[2-methoxy-4-((6-(trifluoromethyl)pyridin-3-yl)methoxy)phenyl]-1,5-dimethyl-1H-imidazol-2-yl]pyridine] | 3.3 |
| 6.8 (≈ 15.3 µM) | 2.2 (≈ 4.95 µM) | 212 to 244 °C | COc1cc(OCc2ccnc(C(F)(F)F)c2)ccc1-c1cnc(-c2ccc(F)nc2)[nH]1 [Example 135] | 3.14 |
| 18.7 (≈ 42.1 µM) | < 1.6 | 141 to 144 °C | COc1cc(OCc2ccc(C(F)(F)F)cn2)ccc1-c1c[nH]c(-c2ccc(F)nc2)n1 [Example 124] | 2.28 |
| 66.5 (≈ 134 µM) | < 8.8 | 182 to 184 °C | COc1cc(OCc2ncccc2C(F)(F)F)ccc1-c1nc(-c2ccc(Cl)nc2)[nH]c1Cl [Example 221] | 3.47 |
| 3 (≈ 5.94 µM) | < 1.8 | 162 to 167 °C | COCCOc1cc(OCc2ccc(C(F)(F)F)cn2)ccc1-c1c[nH]c(-c2ccc(Cl)nc2)n1 [Example 21] | 1.99 |
| 13.1 (≈ 28.6 µM) | < 1.6 | 140 to 142 °C | COc1cc(OCc2ccc(C(F)(F)F)nc2)ccc1-c1nc(-c2ccc(F)cn2)[nH]c1C [Example 23] | 2.94 |
| 8.7 (≈ 18.3 µM) | 0.9 (≈ 1.9 µM) | 196 to 199 °C | COc1cc(OCc2ccc(C(F)(F)F)nc2)ccc1-c1nc(-c2ccc(Cl)nc2)[nH]c1C [Example 49] | 3.46 |
| 0.6 (≈ 1.17 µM) | 1.5 (≈ 2.93 µM) | 222 to 224 °C | COc1cc(OCc2ccc(C(F)(F)F)nc2)ccc1-c1[nH]c(-c2ccc(F)nc2)nc1C(F)(F)F [Example 412] | 1.41 |
